Test results from US10577363B2, “Substituted piperidine compounds” (EPIZYME, INC., priority 2014, dated 2020).

What follows are compounds tested against SMYD3 (Homo sapiens (Human), UniProt Q9H7B4) (assay: SMYD3 biochemical assay (SPA, 3H-SAM methylation of MEKK2 protein substrate)). Conditions: read-out: SMYD3 Biochem IC50 (μM)*.
Summary of the method: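 Enzyme: untagged full-length human SMYD3 from E. coli; substrate GST-tagged MEKK2 from insect cells. Buffer 25 mM Tris-Cl pH 8.0, 1 mM TCEP, 0.005% BSG/Tween 20. 30 min compound–enzyme preincubation at RT; 3H-SAM/MEKK2 start; stop with cold SAM (100 uM final); SPA readout in cpm.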

Row | SMILES | IC50
1 | C[C@@H]1CN(C(=O)CCCN)CC[C@@H]1NC(=O)c1cc(C2CC2)on1 [compound 193, N-((3R,4S)-1-(4-aminobutanoyl)-3-methylpiperidin-4-yl)-5-cyclopropylisoxazole-3-carboxamide] | 2.87 µM
2 | C[C@H]1CN(C(=O)CCCN)CC[C@H]1NC(=O)c1cc(C2CC2)on1 [compound 194, N-((3S,4R)-1-(4-aminobutanoyl)-3-methylpiperidin-4-yl)-5-cyclopropylisoxazole-3-carboxamide] | 1.37 µM
3 | C[C@@H]1CN(C(=O)CCCN)CC[C@H]1NC(=O)c1cc(C2CC2)on1 [compound 195, N-((3R,4R)-1-(4-aminobutanoyl)-3-methylpiperidin-4-yl)-5-cyclopropylisoxazole-3-carboxamide] | > 10 µM
4 | C[C@H]1CN(C(=O)CCCN)CC[C@@H]1NC(=O)c1cc(C2CC2)on1 [compound 196, N-((3S,4S)-1-(4-aminobutanoyl)-3-methylpiperidin-4-yl)-5-cyclopropylisoxazole-3-carboxamide] | 6.91 µM
5 | NCCCC(=O)N1CCC(NC(=O)c2cc(C3CC3)on2)C(F)(F)C1 (stereo not drawn) [compound 197, N-(1-(4-aminobutanoyl)-3,3-difluoropiperidin-4-yl)-5-cyclopropylisoxazole-3-carboxamide] | > 10 µM
6 | NCCCC(=O)N1CCC(NC(=O)c2cc(C3CC3)on2)C2(CC2)C1 (stereo not drawn) [compound 198, N-(5-(4-aminobutanoyl)-5-azaspiro[2.5]octan-8-yl)-5-cyclopropylisoxazole-3-carboxamide] | 0.83 µM
7 | NCCCC(=O)N1C2CCC1CC(NC(=O)c1cc(C3CC3)on1)C2 (stereo not drawn) [compound 199, N-(8-(4-aminobutanoyl)-8-azabicyclo[3.2.1]octan-3-yl)-5-cyclopropylisoxazole-3-carboxamide] | 0.678 µM
8 | C[C@H]1CC(NC(=O)c2cc(C3CC3)on2)CCN1C(=O)N1CCC(N)CC1 (stereo partly drawn) [compound 201, N-((2S)-1-(4-aminopiperidine-1-carbonyl)-2-methylpiperidin-4-yl)-5-cyclopropylisoxazole-3-carboxamide] | 2.23 µM
9 | CC1C(NC(=O)c2cc(C3CC3)on2)CCN(C(=O)[C@H]2CC[C@H](N)CC2)C1C (stereo partly drawn) [compound 203, N-(1-((1r,4r)-4-aminocyclohexane-1-carbonyl)-2,3-dimethylpiperidin-4-yl)-5-cyclopropylisoxazole-3-carboxamide] | 0.379 µM
10 | C[C@H]1CC(NC(=O)c2cc(C3CC3)on2)CCN1C(=O)CC1(CN)CCC1 (stereo partly drawn) [compound 204, N-((2S)-1-(2-(1-(aminomethyl)cyclobutyl)acetyl)-2-methylpiperidin-4-yl)-5-cyclopropylisoxazole-3-carboxamide] | 4.68 µM
11 | C[C@@H]1CC(NC(=O)c2cc(C3CC3)on2)CCN1C(=O)CC1(CN)CCC1 (stereo partly drawn) [compound 205, N-((2R)-1-(2-(1-(aminomethyl)cyclobutyl)acetyl)-2-methylpiperidin-4-yl)-5-cyclopropylisoxazole-3-carboxamide] | 1.99 µM
12 | CC1CNCCC1CC(=O)N1CCC(NC(=O)c2cc(C3CC3)on2)C[C@@H]1C (stereo partly drawn) [compound 206, 5-cyclopropyl-N-((2S)-2-methyl-1-(2-(3-methylpiperidin-4-yl)acetyl)piperidin-4-yl)isoxazole-3-carboxamide] | 1.59 µM
13 | C[C@H]1CC(NC(=O)c2cc(C3CC3)on2)CCN1C(=O)C1(F)CCNCC1 (stereo partly drawn) [compound 207, 5-cyclopropyl-N-((2S)-1-(4-fluoropiperidine-4-carbonyl)-2-methylpiperidin-4-yl)isoxazole-3-carboxamide] | 2.6 µM
14 | C[C@@H]1C[C@@H](NC(=O)c2cc(C3CC3)on2)CCN1C(=O)CCCN [compound 208, N-((2R,4S)-1-(4-aminobutanoyl)-2-methylpiperidin-4-yl)-5-cyclopropylisoxazole-3-carboxamide] | 3.82 µM
15 | C[C@@H]1C[C@@H](NC(=O)c2cc(C3CC3)on2)CCN1S(=O)(=O)CCCN [compound 209, N-((2R,4S)-1-((3-aminopropyl)sulfonyl)-2-methylpiperidin-4-yl)-5-cyclopropylisoxazole-3-carboxamide] | 0.1 µM
16 | NCCCC(=O)N1C2CCCC1CC(NC(=O)c1cc(C3CC3)on1)C2 (stereo not drawn) [compound 211, N-(9-(4-aminobutanoyl)-9-azabicyclo[3.3.1]nonan-3-yl)-5-cyclopropylisoxazole-3-carboxamide] | 5.85 µM
17 | C[C@@H]1C[C@H](NC(=O)c2cc(C3CC3)on2)CCN1C(=O)CCCCN [compound 212, N-((2R,4R)-1-(5-aminopentanoyl)-2-methylpiperidin-4-yl)-5-cyclopropylisoxazole-3-carboxamide] | 0.838 µM
18 | C[C@@H]1C[C@@H](NC(=O)c2cc(C3CC3)on2)CCN1S(=O)(=O)C1CC1 [compound 213, 5-cyclopropyl-N-((2R,4S)-1-(cyclopropylsulfonyl)-2-methylpiperidin-4-yl)isoxazole-3-carboxamide] | > 10 µM

Row | SMILES | IC50
19 | CNS(=O)(=O)N1CC[C@H](NC(=O)c2cc(C3CC3)on2)C[C@H]1C [compound 214, 5-cyclopropyl-N-((2R,4S)-2-methyl-1-(N-methylsulfamoyl)piperidin-4-yl)isoxazole-3-carboxamide] | > 10 µM
20 | COCCS(=O)(=O)N1CC[C@H](NC(=O)c2cc(C3CC3)on2)C[C@H]1C [compound 215, 5-cyclopropyl-N-((2R,4S)-1-((2-methoxyethyl)sulfonyl)-2-methylpiperidin-4-yl)isoxazole-3-carboxamide] | > 10 µM
21 | C[C@@H]1C[C@H](NC(=O)c2cc(C3CC3)on2)CCN1S(=O)(=O)C1CC1 [compound 216, 5-cyclopropyl-N-((2R,4R)-1-(cyclopropylsulfonyl)-2-methylpiperidin-4-yl)isoxazole-3-carboxamide] | > 10 µM
22 | CNS(=O)(=O)N1CC[C@@H](NC(=O)c2cc(C3CC3)on2)C[C@H]1C [compound 217, 5-cyclopropyl-N-((2R,4R)-2-methyl-1-(N-methylsulfamoyl)piperidin-4-yl)isoxazole-3-carboxamide] | 6.76 µM
23 | CC(C)(C)C1CC(NC(=O)c2cc(C3CC3)on2)CCN1C(=O)CCCN (stereo not drawn) [compound 219, N-(1-(4-aminobutanoyl)-2-(tert-butyl)piperidin-4-yl)-5-cyclopropylisoxazole-3-carboxamide] | 6.32 µM
24 | NCCCC(=O)N1CC[C@@H](NC(=O)c2cc(C3CC3)on2)[C@H](c2ccccc2)C1 [compound 220, N-((3R,4R)-1-(4-aminobutanoyl)-3-phenylpiperidin-4-yl)-5-cyclopropylisoxazole-3-carboxamide] | 2.52 µM
25 | NCCCC(=O)N1CC[C@H](NC(=O)c2cc(C3CC3)on2)[C@H](c2ccccc2)C1 [compound 221, N-((3R,4S)-1-(4-aminobutanoyl)-3-phenylpiperidin-4-yl)-5-cyclopropylisoxazole-3-carboxamide] | > 10 µM
26 | C[C@H]1CC(NC(=O)c2cc(C3CC3)on2)CCN1C(=O)C12C3C4C1C1C2C3C41N (stereo partly drawn) [compound 222, N-((2S)-1-(4-aminocubane-1-carbonyl)-2-methylpiperidin-4-yl)-5-cyclopropylisoxazole-3-carboxamide] | 4.64 µM
27 | C[C@H]1CC(NC(=O)c2cc(C3CC3)on2)CCN1C(=O)CC1(O)CCNCC1 (stereo partly drawn) [compound 223, 5-cyclopropyl-N-((2S)-1-(2-(4-hydroxypiperidin-4-yl)acetyl)-2-methylpiperidin-4-yl)isoxazole-3-carboxamide] | 7.19 µM
28 | C[C@@H]1CC(NC(=O)c2cc(C3CC3)on2)CCN1C(=O)C1(C)CCNCC1 (stereo partly drawn) [compound 224, 5-cyclopropyl-N-((2R)-2-methyl-1-(4-methylpiperidine-4-carbonyl)piperidin-4-yl)isoxazole-3-carboxamide] | 1.42 µM
29 | C[C@@H]1C[C@@H](NC(=O)c2cc(C3CC3)on2)CCN1C(=O)CC(O)CN (stereo partly drawn) [compound 225, N-((2R,4S)-1-(4-amino-3-hydroxybutanoyl)-2-methylpiperidin-4-yl)-5-cyclopropylisoxazole-3-carboxamide] | 9.05 µM
30 | C[C@H]1CC(NC(=O)c2cc(C3CC3)on2)CCN1C(=O)CC1CCCC(N)C1 (stereo partly drawn) [compound 226, N-((2S)-1-(2-(3-aminocyclohexyl)acetyl)-2-methylpiperidin-4-yl)-5-cyclopropylisoxazole-3-carboxamide] | 2.38 µM
31 | C[C@H]1C[C@@H](NC(=O)c2cc(C3CC3)on2)CCN1C(=O)CCCCN [compound 228, N-((2S,4S)-1-(5-aminopentanoyl)-2-methylpiperidin-4-yl)-5-cyclopropylisoxazole-3-carboxamide] | 1.28 µM
32 | CCCS(=O)(=O)N1CC[C@H](NC(=O)c2cc(C3CC3)on2)C[C@@H]1C [compound 229, 5-cyclopropyl-N-((2S,4S)-2-methyl-1-(propylsulfonyl)piperidin-4-yl)isoxazole-3-carboxamide] | 0.863 µM
33 | CC(C)CS(=O)(=O)N1CC[C@H](NC(=O)c2cc(C3CC3)on2)C[C@@H]1C [compound 230, 5-cyclopropyl-N-((2S,4S)-1-(isobutylsulfonyl)-2-methylpiperidin-4-yl)isoxazole-3-carboxamide] | 0.472 µM
34 | CCOC(=O)CS(=O)(=O)N1CC[C@H](NC(=O)c2cc(C3CC3)on2)C[C@@H]1C [compound 231, ethyl 2-(((2S,4S)-4-(5-cyclopropylisoxazole-3-carboxamido)-2-methylpiperidin-1-yl)sulfonyl)acetate] | 1.17 µM
35 | C[C@H]1C[C@@H](NC(=O)c2cc(C3CC3)on2)CCN1S(=O)(=O)CC(F)(F)F [compound 232, 5-cyclopropyl-N-((2S,4S)-2-methyl-1-((2,2,2-trifluoroethyl)sulfonyl)piperidin-4-yl)isoxazole-3-carboxamide] | 3.26 µM
36 | COCCS(=O)(=O)N1CC[C@H](NC(=O)c2cc(C3CC3)on2)C[C@@H]1C [compound 233, 5-cyclopropyl-N-((2S,4S)-1-((2-methoxyethyl)sulfonyl)-2-methylpiperidin-4-yl)isoxazole-3-carboxamide] | 2.36 µM
